Reference: article PMC11857971, “^11C-Labeling of a Flavanone Extracted from a South American Native Species for Evaluation of Its Interaction with GSK-3β” (Molecules, 2025)

Biological target: T1, GSK-3β (Homo sapiens, UniProt P49841)
T1 construct: gene GSK3B
Assay: Kinase-Glo luminescent kinase assay, recombinant human GSK-3β, dose-response
Assay type: biochemical

T1 sequence (P49841 whole entry): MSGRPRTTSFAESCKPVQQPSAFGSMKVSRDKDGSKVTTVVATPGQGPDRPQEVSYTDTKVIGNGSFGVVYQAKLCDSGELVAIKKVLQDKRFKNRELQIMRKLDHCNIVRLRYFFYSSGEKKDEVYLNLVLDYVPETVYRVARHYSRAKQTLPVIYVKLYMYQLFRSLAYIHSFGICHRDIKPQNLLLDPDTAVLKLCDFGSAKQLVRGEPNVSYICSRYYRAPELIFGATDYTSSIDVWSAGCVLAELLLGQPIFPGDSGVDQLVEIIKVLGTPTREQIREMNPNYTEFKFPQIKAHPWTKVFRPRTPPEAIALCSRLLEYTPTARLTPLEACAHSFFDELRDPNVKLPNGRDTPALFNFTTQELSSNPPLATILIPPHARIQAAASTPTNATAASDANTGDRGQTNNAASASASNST

Row | SMILES | IC50
1 | COc1cc(O)c2c(c1CC=C(C)C)O[C@H](c1ccccc1)CC2=O [FLA, (S)-5-hidroxy-7-methoxy-8-(3-methylbut-2-en-1-yl)-2-phenylcroman-4-one] | 16.1 ± 0.6 µM
2 | CC(C)=CCc1c(O)cc(O)c2c1O[C@H](c1ccccc1)CC2=O [glabranin, (S)-5,7-dihydroxy-8-(3-methylbut-2-en-1-yl)-2-phenylchroman-4-one] | 44.8 ± 4 µM
